The results in this text go back to US20240033349A1, “VACCINE AND METHOD OF PROTECTION AGAINST CORONAVIRUS INFECTION” (priority 2020, published 2024).

Data set [1] deals with virus of Venezuelan equine encephalomyelitis, strain Trinidad. Set-up: species or system mice. To be noted: mouse, in vivo.
The conditions of data set [2]: clinical examples, unlike other phthalhydrazide derivatives.
The test system of data set [3] is MERS-CovN3/Jordanp3 virus. Details: species or system mice. As to conditions: mouse, in vivo.
Data set [4] relates to SARS-Cov virus (strain SARS-Covktp3). Set-up: species or system mice. As to conditions: mouse, in vivo.
Data set [5] has as its system new coronavirus infection COVID-19. As to conditions: human, in vivo.
The subject of a further data set is SARS-Cov-2. To be noted: human, in vivo.

With `Nc1cccc2c(=O)[nH][nH]c(=O)c12.[Na]` [Tamerit, 5-amino-1,2,3,4-tetrahydrophthalazine-1,4-dione sodium salt], in data set [1], the “Survival rate higher than in animals immunized only with VVE” value is 25-30% and the “Survival rate of infected mice depending on the infecting dose” value was 60-100%. Besides, the “Toxic, cumulative, mutagenic or teratogenic effects” value in data set [2] is given as “no toxic, cumulative, mutagenic or teratogenic effects”. Moreover, the Protection effect in data set [3] was found to be 50%. The same molecule came in with a Protection effect in data set [4] of 50%. Further, in data set [5], the “Development of early pulmonary fibrosis by computed tomography” value was “not observed in any patient”, the “Indications for artificial lung ventilation” value was “none of the observed patients treated with Tamerit had indications for artificial lung ventilation”, the “Infection with COVID-19 after contact with the patients” value was “No one of them got infected” and the “Reduction of duration of clinical manifestations of the acute phase of the disease” value is on record as 1.5-2 weeks. Also, the “Time to complete regression of symptoms” value in data set [5] lay in the range of 3 to 4 days. In the data set on SARS-Cov-2, the “Control MSCT of the chest organs” value is “pronounced positive dynamics”; the “Dynamics of clinical and laboratory data” value was “rapid positive dynamics of clinical and laboratory data”; the “MSCT grade of lung lesion” value is recorded as “CT-2”; the “SARS-Cov-2 RNA test” value was “not detected”. For the same molecule, in the data set on SARS-Cov-2, the ferritin entry is reported as “ferritin-973.3 ng/ml” and the interleukin-6 is 924.6 pg/mL,.
